Laboratory results: patent US20230157952A1, “METHOD FOR IMPROVING THE STABILITY OF A PHARMACEUTICAL COMPOSITION COMPRISING A HIGH PENETRATION DRUG, AND THE PHARMACEUTICAL COMPOSITION OBTAINED THEREFROM” (Techfields Inc., priority 2020, published 2023)

Experiment: Effect of temperature (and pH) on the stability of the solution (purity)
Assay type: physicochemical

CCN(CC)CCOC(=O)COC(=O)Cc1c(C)n(C(=O)c2ccc(Cl)cc2)c2ccc(OC)cc12.Cl
Purity(%) at day 0 (7% solution in water, pH 1.0, day 0): 98.1 ± 0.3%
Purity(%) at day 21 (5° C.) (7% solution in water, pH 1.0, day 21, 5° C.): 91.9 ± 0.3%
Purity(%) at day 21 (25° C.) (7% solution in water, pH 1.0, day 21, 25° C.): 67.3 ± 0.3%
Purity(%) at day 21 (40° C.) (7% solution in water, pH 1.0, day 21, 40° C.): 15.6 ± 0.3%
Purity (%) at day 21 (60° C.) (7% solution in water, pH 1.0, day 21, 60° C.): 0%
Purity(%) at day 0 (7% solution in water, pH 2.0, day 0): 98.3 ± 0.3%
Purity(%) at day 21 (5° C.) (7% solution in water, pH 2.0, day 21, 5° C.): 95.7 ± 0.2%
Purity(%) at day 21 (25° C.) (7% solution in water, pH 2.0, day 21, 25° C.): 82.2 ± 0.2%
Purity(%) at day 21 (40° C.) (7% solution in water, pH 2.0, day 21, 40° C.): 26.7 ± 0.3%
Purity (%) at day 21 (60° C.) (7% solution in water, pH 2.0, day 21, 60° C.): 0%
Purity(%) at day 0 (7% solution in water, pH 3.0, day 0): 98.5 ± 0.2%
Purity(%) at day 21 (5° C.) (7% solution in water, pH 3.0, day 21, 5° C.): 98.0 ± 0.2%
Purity(%) at day 21 (25° C.) (7% solution in water, pH 3.0, day 21, 25° C.): 93.0 ± 0.2%
Purity(%) at day 21 (40° C.) (7% solution in water, pH 3.0, day 21, 40° C.): 47.7 ± 0.3%
Purity (%) at day 21 (60° C.) (7% solution in water, pH 3.0, day 21, 60° C.): 0%
Purity(%) at day 0 (7% solution in water, pH 3.7, day 0): 98.7 ± 0.1%
Purity(%) at day 21 (5° C.) (7% solution in water, pH 3.7, day 21, 5° C.): 98.2 ± 0.1%
Purity(%) at day 21 (25° C.) (7% solution in water, pH 3.7, day 21, 25° C.): 97.1 ± 0.1%
Purity(%) at day 21 (40° C.) (7% solution in water, pH 3.7, day 21, 40° C.): 57.6 ± 0.2%
Purity (%) at day 21 (60° C.) (7% solution in water, pH 3.7, day 21, 60° C.): 13.9 ± 0.3%
Purity(%) at day 0 (7% solution in water, pH 4.0, day 0): 98.7 ± 0.1%
Purity(%) at day 21 (5° C.) (7% solution in water, pH 4.0, day 21, 5° C.): 98.4 ± 0.1%
Purity(%) at day 21 (25° C.) (7% solution in water, pH 4.0, day 21, 25° C.): 97.4 ± 0.2%
Purity(%) at day 21 (40° C.) (7% solution in water, pH 4.0, day 21, 40° C.): 68.7 ± 0.3%
Purity (%) at day 21 (60° C.) (7% solution in water, pH 4.0, day 21, 60° C.): 19.2 ± 0.3%
Purity(%) at day 0 (7% solution in water, pH 4.3, day 0): 98.8 ± 0.2%
Purity(%) at day 21 (5° C.) (7% solution in water, pH 4.3, day 21, 5° C.): 98.5 ± 0.1%
Purity(%) at day 21 (25° C.) (7% solution in water, pH 4.3, day 21, 25° C.): 97.5 ± 0.1%
Purity(%) at day 21 (40° C.) (7% solution in water, pH 4.3, day 21, 40° C.): 68.6 ± 0.3%
Purity (%) at day 21 (60° C.) (7% solution in water, pH 4.3, day 21, 60° C.): 17.9 ± 0.2%
Purity(%) at day 0 (7% solution in water, pH 4.6, day 0): 98.8 ± 0.2%
Purity(%) at day 21 (5° C.) (7% solution in water, pH 4.6, day 21, 5° C.): 98.4 ± 0.2%
Purity(%) at day 21 (25° C.) (7% solution in water, pH 4.6, day 21, 25° C.): 96.5 ± 0.2%
Purity(%) at day 21 (40° C.) (7% solution in water, pH 4.6, day 21, 40° C.): 53.7 ± 0.2%
Purity (%) at day 21 (60° C.) (7% solution in water, pH 4.6, day 21, 60° C.): 14.8 ± 0.3%
Purity(%) at day 0 (7% solution in water, pH 5.0, day 0): 98.6 ± 0.2%
Purity(%) at day 21 (5° C.) (7% solution in water, pH 5.0, day 21, 5° C.): 97.1 ± 0.2%
Purity(%) at day 21 (25° C.) (7% solution in water, pH 5.0, day 21, 25° C.): 93.8 ± 0.2%
Purity(%) at day 21 (40° C.) (7% solution in water, pH 5.0, day 21, 40° C.): 39.8 ± 0.3%
Purity (%) at day 21 (60° C.) (7% solution in water, pH 5.0, day 21, 60° C.): 3.2 ± 0.2%
Purity(%) at day 0 (7% solution in water, pH 6.0, day 0): 98.4 ± 0.2%
Purity(%) at day 21 (5° C.) (7% solution in water, pH 6.0, day 21, 5° C.): 95.8 ± 0.2%
Purity(%) at day 21 (25° C.) (7% solution in water, pH 6.0, day 21, 25° C.): 86.9 ± 0.2%
Purity(%) at day 21 (40° C.) (7% solution in water, pH 6.0, day 21, 40° C.): 28.8 ± 0.2%
Purity (%) at day 21 (60° C.) (7% solution in water, pH 6.0, day 21, 60° C.): 0%
Purity(%) at day 0 (7% solution in water, pH 7.0, day 0): 98.1 ± 0.2%
Purity(%) at day 21 (5° C.) (7% solution in water, pH 7.0, day 21, 5° C.): 90.2 ± 0.3%
Purity(%) at day 21 (25° C.) (7% solution in water, pH 7.0, day 21, 25° C.): 59.7 ± 0.3%
Purity(%) at day 21 (40° C.) (7% solution in water, pH 7.0, day 21, 40° C.): 11.2 ± 0.4%
Purity (%) at day 21 (60° C.) (7% solution in water, pH 7.0, day 21, 60° C.): 0%
Purity(%) at day 0 (7% solution in water, pH 8.0, day 0): 97.7 ± 0.3%
Purity(%) at day 21 (5° C.) (7% solution in water, pH 8.0, day 21, 5° C.): 78.5 ± 0.2%
Purity(%) at day 21 (25° C.) (7% solution in water, pH 8.0, day 21, 25° C.): 47.9 ± 0.3%
Purity(%) at day 21 (40° C.) (7% solution in water, pH 8.0, day 21, 40° C.): 0%
Purity (%) at day 21 (60° C.) (7% solution in water, pH 8.0, day 21, 60° C.): 0%

CCN(CC)CCOC(=O)C(C)c1ccc(CC(C)C)cc1.Cl (racemic)
Purity (%) at day 21 (60° C.) (pH 1.02, 7% solution in water): 0%
Purity(%) at day 21 (5° C.) (pH 1.02, 7% solution in water): 93.7 ± 0.3%
Purity(%) at day 21 (25° C.) (pH 1.02, 7% solution in water): 73.0 ± 0.4%
Purity(%) at day 21 (40° C.) (pH 1.02, 7% solution in water): 18.6 ± 0.4%
Purity (%) at day 21 (60° C.) (pH 2.09, 7% solution in water): 0%
Purity(%) at day 21 (5° C.) (pH 2.09, 7% solution in water): 97.6 ± 0.4%
Purity(%) at day 21 (25° C.) (pH 2.09, 7% solution in water): 86.1 ± 0.3%
Purity(%) at day 21 (40° C.) (pH 2.09, 7% solution in water): 30.4 ± 0.3%
Purity (%) at day 21 (60° C.) (pH 3.00, 7% solution in water): 8.8 ± 0.3%
Purity(%) at day 21 (25° C.) (pH 3.00, 7% solution in water): 96.5 ± 0.4%
Purity(%) at day 21 (40° C.) (pH 3.00, 7% solution in water): 56.3 ± 0.4%
Purity (%) at day 21 (60° C.) (pH 3.68, 7% solution in water): 16.4 ± 0.4%
Purity(%) at day 21 (40° C.) (pH 3.68, 7% solution in water): 64.3 ± 0.4%
Purity (%) at day 21 (60° C.) (pH 4.07, 7% solution in water): 22.6 ± 0.4%
Purity(%) at day 21 (40° C.) (pH 4.07, 7% solution in water): 72.7 ± 0.3%
Purity (%) at day 21 (60° C.) (pH 4.35, 7% solution in water): 18.8 ± 0.2%
Purity(%) at day 21 (40° C.) (pH 4.35, 7% solution in water): 72.6 ± 0.3%
Purity (%) at day 21 (60° C.) (pH 4.67, 7% solution in water): 10.3 ± 0.3%
Purity(%) at day 21 (40° C.) (pH 4.67, 7% solution in water): 58.2 ± 0.4%
Purity (%) at day 21 (60° C.) (pH 4.95, 7% solution in water): 3.9 ± 0.3%
Purity(%) at day 21 (5° C.) (pH 4.95, 7% solution in water): 97.5 ± 0.4%
Purity(%) at day 21 (25° C.) (pH 4.95, 7% solution in water): 95.4 ± 0.4%
Purity(%) at day 21 (40° C.) (pH 4.95, 7% solution in water): 50.2 ± 0.4%
Purity (%) at day 21 (60° C.) (pH 5.98, 7% solution in water): 0%
Purity(%) at day 21 (5° C.) (pH 5.98, 7% solution in water): 96.1 ± 0.3%
Purity(%) at day 21 (25° C.) (pH 5.98, 7% solution in water): 90.7 ± 0.3%
Purity(%) at day 21 (40° C.) (pH 5.98, 7% solution in water): 29.9 ± 0.2%
Purity (%) at day 21 (60° C.) (pH 6.98, 7% solution in water): 0%
Purity(%) at day 21 (5° C.) (pH 6.98, 7% solution in water): 90.7 ± 0.4%
Purity(%) at day 21 (25° C.) (pH 6.98, 7% solution in water): 78.6 ± 0.4%
Purity(%) at day 21 (40° C.) (pH 6.98, 7% solution in water): 19.7 ± 0.4%
Purity (%) at day 21 (60° C.) (pH 8.01, 7% solution in water): 0%
Purity(%) at day 21 (5° C.) (pH 8.01, 7% solution in water): 81.6 ± 0.5%
Purity(%) at day 21 (25° C.) (pH 8.01, 7% solution in water): 52.5 ± 0.5%
Purity(%) at day 21 (40° C.) (pH 8.01, 7% solution in water): 0%
